Laboratory results published in the NIST ThermoML archive (doi:10.1021/je100095p).
± gives the expanded uncertainty stated by the source. Values belong to the compound of their own block, whether it stands above or below them.

Experiments:
[1] = 298.15 K; 101.33 kPa; Liquid; Vibrating tube method
[2] = refractive index (Na D-line) (dimensionless); conditions: 298.15 K; 101.33 kPa; Liquid; Standard Abbe refractometry
[3] = excess molar enthalpy (molar enthalpy of mixing); xn = mol fraction of the nth substance listed; conditions: 298.15 K, 101 kPa, Liquid, Calvet calorimetry

mass density [1]: 799.51 ± 0.12 kg/m3
refractive index [2]: 1.3833 ± 0.0005
SMILES: CCCO [propan-1-ol]

mass density [1]: 785.15 ± 0.12 kg/m3
refractive index [2]: 1.3595 ± 0.0005
SMILES: CCO [ethanol]

excess molar enthalpy ([3]; x1 = 0.0746): 0.0734 ± 0.0019 kJ/mol
excess molar enthalpy ([3]; x1 = 0.1514): 0.131 ± 0.0031 kJ/mol
excess molar enthalpy ([3]; x1 = 0.2275): 0.171 ± 0.0039 kJ/mol
excess molar enthalpy ([3]; x1 = 0.3029): 0.198 ± 0.0045 kJ/mol
excess molar enthalpy ([3]; x1 = 0.3785): 0.214 ± 0.0048 kJ/mol
excess molar enthalpy ([3]; x1 = 0.4855): 0.223 ± 0.005 kJ/mol
excess molar enthalpy ([3]; x1 = 0.5857): 0.208 ± 0.0047 kJ/mol
excess molar enthalpy ([3]; x1 = 0.6883): 0.177 ± 0.004 kJ/mol
excess molar enthalpy ([3]; x1 = 0.7915): 0.129 ± 0.0031 kJ/mol
excess molar enthalpy ([3]; x1 = 0.8949): 0.0717 ± 0.0019 kJ/mol
SMILES: OCc1ccccc1 [benzenemethanol] + CCO

excess molar enthalpy ([3]; x1 = 0.0976): 0.0849 ± 0.0022 kJ/mol
excess molar enthalpy ([3]; x1 = 0.1973): 0.149 ± 0.0035 kJ/mol
excess molar enthalpy ([3]; x1 = 0.295): 0.196 ± 0.0044 kJ/mol
excess molar enthalpy ([3]; x1 = 0.396): 0.221 ± 0.005 kJ/mol
excess molar enthalpy ([3]; x1 = 0.4931): 0.231 ± 0.0052 kJ/mol
excess molar enthalpy ([3]; x1 = 0.6029): 0.212 ± 0.0048 kJ/mol
excess molar enthalpy ([3]; x1 = 0.7039): 0.179 ± 0.0041 kJ/mol
excess molar enthalpy ([3]; x1 = 0.8026): 0.133 ± 0.0031 kJ/mol
excess molar enthalpy ([3]; x1 = 0.9017): 0.0726 ± 0.0019 kJ/mol
SMILES: OCc1ccccc1 [benzenemethanol] + CCCCO

excess molar enthalpy ([3]; x1 = 0.0984): 0.0486 ± 0.0014 kJ/mol
excess molar enthalpy ([3]; x1 = 0.1964): 0.0847 ± 0.0021 kJ/mol
excess molar enthalpy ([3]; x1 = 0.2873): 0.106 ± 0.0026 kJ/mol
excess molar enthalpy ([3]; x1 = 0.3999): 0.124 ± 0.0029 kJ/mol
excess molar enthalpy ([3]; x1 = 0.4987): 0.119 ± 0.0028 kJ/mol
excess molar enthalpy ([3]; x1 = 0.5993): 0.107 ± 0.0026 kJ/mol
excess molar enthalpy ([3]; x1 = 0.6983): 0.0867 ± 0.0022 kJ/mol
excess molar enthalpy ([3]; x1 = 0.7996): 0.0614 ± 0.0017 kJ/mol
excess molar enthalpy ([3]; x1 = 0.8988): 0.0323 ± 0.0011 kJ/mol
SMILES: OCc1ccccc1 [benzenemethanol] + CCCO

mass density [1]: 810.88 ± 0.24 kg/m3
refractive index [2]: 1.4088 ± 0.0005
SMILES: CCCCCO [pentan-1-ol]

excess molar enthalpy ([3]; x1 = 0.1044): 0.0957 ± 0.0024 kJ/mol
excess molar enthalpy ([3]; x1 = 0.1968): 0.169 ± 0.0039 kJ/mol
excess molar enthalpy ([3]; x1 = 0.2902): 0.226 ± 0.0051 kJ/mol
excess molar enthalpy ([3]; x1 = 0.3864): 0.266 ± 0.0059 kJ/mol
excess molar enthalpy ([3]; x1 = 0.4838): 0.285 ± 0.0063 kJ/mol
excess molar enthalpy ([3]; x1 = 0.5999): 0.271 ± 0.006 kJ/mol
excess molar enthalpy ([3]; x1 = 0.6988): 0.241 ± 0.0054 kJ/mol
excess molar enthalpy ([3]; x1 = 0.7995): 0.186 ± 0.0042 kJ/mol
excess molar enthalpy ([3]; x1 = 0.8992): 0.106 ± 0.0026 kJ/mol
SMILES: OCc1ccccc1 [benzenemethanol] + CCCCCO

mass density [1]: 805.75 ± 0.12 kg/m3
refractive index [2]: 1.3974 ± 0.0005
SMILES: CCCCO [butan-1-ol]

mass density [1]: 815.2 ± 0.64 kg/m3
refractive index [2]: 1.4165 ± 0.0006
SMILES: CCCCCCO [hexan-1-ol]

excess molar enthalpy ([3]; x1 = 0.0954): 0.104 ± 0.0026 kJ/mol
excess molar enthalpy ([3]; x1 = 0.1959): 0.198 ± 0.0045 kJ/mol
excess molar enthalpy ([3]; x1 = 0.291): 0.271 ± 0.006 kJ/mol
excess molar enthalpy ([3]; x1 = 0.3901): 0.324 ± 0.0071 kJ/mol
excess molar enthalpy ([3]; x1 = 0.5072): 0.344 ± 0.0076 kJ/mol
excess molar enthalpy ([3]; x1 = 0.598): 0.342 ± 0.0075 kJ/mol
excess molar enthalpy ([3]; x1 = 0.6996): 0.31 ± 0.0068 kJ/mol
excess molar enthalpy ([3]; x1 = 0.8022): 0.241 ± 0.0054 kJ/mol
excess molar enthalpy ([3]; x1 = 0.8986): 0.145 ± 0.0034 kJ/mol
SMILES: OCc1ccccc1 [benzenemethanol] + CCCCCCO

mass density [1]: 1041.99 ± 0.26 kg/m3
refractive index [2]: 1.5381 ± 0.0005
SMILES: OCc1ccccc1 [benzenemethanol]

mass density [1]: 786.5 ± 0.15 kg/m3
refractive index [2]: 1.3266 ± 0.0005
SMILES: CO [methanol]

excess molar enthalpy ([3]; x1 = 0.07): -0.0152 ± 0.0009 kJ/mol
excess molar enthalpy ([3]; x1 = 0.1388): -0.0334 ± 0.0012 kJ/mol
excess molar enthalpy ([3]; x1 = 0.2057): -0.057 ± 0.0016 kJ/mol
excess molar enthalpy ([3]; x1 = 0.2728): -0.0792 ± 0.002 kJ/mol
excess molar enthalpy ([3]; x1 = 0.3404): -0.101 ± 0.0025 kJ/mol
excess molar enthalpy ([3]; x1 = 0.3992): -0.12 ± 0.0029 kJ/mol
excess molar enthalpy ([3]; x1 = 0.4995): -0.141 ± 0.0033 kJ/mol
excess molar enthalpy ([3]; x1 = 0.5964): -0.144 ± 0.0034 kJ/mol
excess molar enthalpy ([3]; x1 = 0.6972): -0.136 ± 0.0032 kJ/mol
excess molar enthalpy ([3]; x1 = 0.7998): -0.108 ± 0.0026 kJ/mol
excess molar enthalpy ([3]; x1 = 0.9028): -0.0615 ± 0.0017 kJ/mol
SMILES: OCc1ccccc1 [benzenemethanol] + CO
